pIC50: −log10 of the molar value. “Also recorded” adds a separate entry of the source. Where two headings read alike, the source gives them in different places.
Experiments:
[1] = test system: phosphatidic acid (PA) subspecies in 293tat cells; experiment: PA composition of 293tat cells by HPLC; type: cell-based, human
Method: One must first quantitatively and qualitatively separate PAs from the other lipids found in serum by a chemical extraction of lipids and high performance liquid chromatography (HPLC) to separate and detect PAs. […] Briefly, the method of Bligh et al. involves an organic extraction of lipids from biological tissue homogenates or fluids. One volume of sample and three volumes of methanol:chloroform (2:1) are vigorously shaken for 2 min. One volume of chloroform is added and then shaken vigorously for 30 sec. One volume of water is added and then shaken vigorously for 30 sec. The mixture is filtered and the upper aqueous layer is discarded. The lower organic layer contains a mixture of lipid classes. The method of Folch et al. involves the extraction of lipids from biological tissue homogenates or body fluids. One volume of sample plus 20 volumes of chloroform:methanol (2:1) are vigorously shaken for 2 min. The mixture is filtered and an amount of 0.1 N KCl equal to 20% of the extraction mixture volume is added and the mixture is shaken vigorously for 2 min. The aqueous and organic phases are allowed to separate. The upper aqueous layer is discarded. The lower organic layer contains a mixture of lipid classes. […] This method involves separation of lipids into their major classes by normal phase (silica) high performance liquid chromatography (HPLC). A 5 micron, 25 cm×0.45 cm silica HPLC column is connected to a binary solvent delivery system followed with a UV detector. The lipid sample is injected on the column and a solvent gradient is run at 1.0 ml/min. The solvent gradient is hexane:isopropanol:water in the proportions 3:4:0.75 run isocratically for 3 min, then ramped to hexane:isopropanol:water in the proportions 3:4:1.4 in 15 min, then run isocratically at the same proportions for 15 min. Detection is at 206 nm.
One of the steps after cell activation involves the hydrolysis of phosphatidylcholine (PC), the major phospholipid of cellular membranes, by phospholipases C and D, leading to the generation of second messengers, such as PA and DG, in the signal transduction cascade.

[2] = test system: HIV-1 in U1 cells (IL-6 mediated expression); experiment: IL-6-mediated HIV-1 p24 antigen expression in chronically infected U1 cells; type: cell-based, HIV-1; human cells
Method: FIG. 17 illustrates a dose response curves of CT2576 on constitutive, TNF-α, and IL-6-mediated expression of HIV-1 in a chronically infected U1 cell line (left Y-axis) and of CT3537 on HIV expression in PBL acutely infected with the JR-CSF primary isolate (right Y-axis). U1 cells were incubated for four days after the addition of CT2576 with or without TNF-α (20 pg/ml) or IL-6 (1 ng/ml). PBL were inoculated with HIV at 10 ng virus/10^6 cells/well and incubated with various concentrations of CT3537 for 7 days. Each data point represents the average expression levels of HIV-1 p24-antigen in the cell supernatants measured by ELISA from triplicate samples with error bar indicating the SD.
Stable cell lines 293tar, 293tat and 293tat2 were generated by transfections using conditions described in (Tate et al., FASEB J. 4:227-231, 1990) with the plasmid pHIV.AP alone or along with either pHIV.tat or pSV2tat72, respectively. The assay of HIV-1 p24 antigen expression in the chronically HIV-1-infected promonocytic line U1 after 4 days and in acutely infected peripheral blood lymphocytes (PBL) after 7 days were described (Peterson et al., J. Clin. Invest. 89:574-580, 1992, and Brighty et al., Proc Natl. Acad. Sci. USA 88:7802-7805, 1991).
This example illustrates that CT2576 inhibited both constitutive and cytokine-induced HIV expression in a chronically-infected U1 cell line. A chronically HIV-1 infected human promonocyte cell line, U1 (Poli et al., J. Exp. Med. 172:151-158, 1990), was used as a model to see if the inhibitory effect of CT2576 on HIV-LTR driven reporter gene expression could be extended to block HIV replication per se in infected cells. TNF-α and IL-6 have been reported to upregulate the expression of HIV-1 in U1 cells (Poli et al., Proc Natl. Acad. Sci. USA 91:108-112, 1994). U1 cells were plated onto 24-well microtiter plates to study the dose-response effect of CT2576 on the constitutive (10^4 cells/well), TNF-α or IL-6 mediated (2×10^3 cells/well) expression of HIV-1. […]

AP mRNA in 293tat cells = experiment: AP mRNA level in 293tat cells, Northern blot; type: cell-based, human; details: with TNF-α or IL-1β
Method: Nuclear extracts (A) from 293tat cells were tested by EMSA for activation of NFκB. A radiolabeled 40-mer covering the NFκB sequences in the HIV promoter was used as a probe. Cells were incubated with CT2576 at 12 μM, human TNF-α at 40 ng/ml or IL-1β at 1 ng/ml, or pre-incubated for 30 min. with CT2576 and then stimulated with TNF-α or IL-1β for 18 hr prior to making extracts. RNA was extracted from 293tat cells (B) after treatment with CT2576 without or with TNF-α or IL-1β for 18 hr. Northern blots analysis were performed using probes derived from AP cDNA and G3PDH cDNA as a control for normalization of mRNA level. AP activity was determined in cell supernatants from the various samples.
NFκB binding activity in nuclear extracts (Dignam et al., Nucleic Acids Res. 11:1475-1489, 1983) of cells was measured by electrophoretic mobility-shift assay (EMSA) (Carthew et al., Cell 43:439-448, 1985) using 5'-labeled double-stranded synthetic DNA with two NF-κB motifs. Northern blot analysis was performed with total RNA run on 1% agarose/formaldehyde gel and probed with ^32 P-labeled cDNA of AP and glyceraldehyde-3-phosphate dehydrogenase (G3PDH).

What does the source list for `CCCCCCCCNCC(O)CCCCCCCCCn1c(=O)c2c(ncn2C)n(C)c1=O` (centres unmarked) [CT2576, 1-(11-octylamino-10-hydroxyundecyl)-3,7-dimethylxanthine]?
effect on generation of myrPA species / turnover of PA subspecies [1]: affected the turnover of PA subspecies; also recorded: affects the generation of myrPA species; long chain unsaturated PA, share of far UV absorbing lipids after preincubation ([1]; 8 μM CT2576): 15%; long chain unsaturated PA, share of far UV absorbing lipids after 2 minutes TNF-α ([1]; 8 μM CT2576, 2 minutes of TNF-α): 20%; short chained saturated PA subspecies ([1]; preincubation with 8 μM CT2576): less after CT2576 preincubation than without treatment; also recorded: very little change with addition of TNF-α; pIC50 ([2]; Human immunodeficiency virus 1, 96 h, read-out: IC50, IL-6 mediated HIV expression, U1 cells, 4 days): ~6.00; pIC50 ([2]; U1 cells, 4 days, read-out: IC50, IL-6 mediated HIV expression): > 6.00; inhibition of IL-6 mediated HIV-1 expression (p24) ([2]; U1 cells, in words): inhibited; AP transcript / mRNA steady-state level (AP mRNA in 293tat cells): increase in mRNA level; also recorded: did not block expression at the transcription stage

Reference: patent publication US5985926A, “Method for inhibiting intracellular viral replication” (Cell Therapeutics, Inc., priority 1997, dated 1999)
